Results as given in paper PMC8978638 (RSC Advances, 2021).

Tests used:
human AChE = human AChE (Homo sapiens, UniProt P22303); assay: Enzyme inhibition assay; format: biochemical
human BChE = human BChE (Homo sapiens, UniProt P06276); assay: Enzyme inhibition assay; format: biochemical
[1] = DPPH free radical scavenging; settings: % scavenging of DPPH at 1 μg μL^−1 concentration

Chain of human BChE (P06276 29-602): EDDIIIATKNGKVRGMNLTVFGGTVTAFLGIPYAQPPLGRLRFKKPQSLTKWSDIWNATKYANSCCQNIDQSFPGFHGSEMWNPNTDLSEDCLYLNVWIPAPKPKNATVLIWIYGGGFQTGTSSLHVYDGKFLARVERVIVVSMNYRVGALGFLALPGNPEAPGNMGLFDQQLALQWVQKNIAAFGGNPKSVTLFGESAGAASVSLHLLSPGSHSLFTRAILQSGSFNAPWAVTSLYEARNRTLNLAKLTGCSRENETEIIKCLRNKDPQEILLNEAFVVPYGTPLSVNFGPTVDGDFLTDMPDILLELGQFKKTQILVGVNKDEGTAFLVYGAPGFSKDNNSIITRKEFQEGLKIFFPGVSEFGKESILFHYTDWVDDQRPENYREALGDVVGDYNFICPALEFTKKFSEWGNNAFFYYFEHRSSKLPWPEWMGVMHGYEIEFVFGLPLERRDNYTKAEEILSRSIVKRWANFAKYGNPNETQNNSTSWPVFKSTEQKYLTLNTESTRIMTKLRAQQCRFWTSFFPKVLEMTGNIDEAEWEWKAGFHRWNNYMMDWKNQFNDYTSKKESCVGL
Chain of human AChE (P22303 32-614): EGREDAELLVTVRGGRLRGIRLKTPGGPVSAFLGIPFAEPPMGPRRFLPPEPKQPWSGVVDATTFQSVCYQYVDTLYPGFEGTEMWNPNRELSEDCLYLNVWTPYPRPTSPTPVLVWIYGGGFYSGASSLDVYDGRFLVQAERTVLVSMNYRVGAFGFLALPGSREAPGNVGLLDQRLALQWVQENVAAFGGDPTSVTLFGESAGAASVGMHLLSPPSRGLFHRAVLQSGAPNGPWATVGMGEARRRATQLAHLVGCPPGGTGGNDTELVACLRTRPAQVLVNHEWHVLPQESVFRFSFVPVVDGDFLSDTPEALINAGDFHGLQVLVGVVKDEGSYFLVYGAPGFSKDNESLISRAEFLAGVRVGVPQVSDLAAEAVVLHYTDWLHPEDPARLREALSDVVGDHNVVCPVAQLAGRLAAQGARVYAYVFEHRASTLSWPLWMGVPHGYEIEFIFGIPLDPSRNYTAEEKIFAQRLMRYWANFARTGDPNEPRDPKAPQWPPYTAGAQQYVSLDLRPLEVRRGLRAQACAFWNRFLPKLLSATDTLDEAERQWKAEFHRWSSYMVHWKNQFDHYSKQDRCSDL

| Compound | IC50 (human AChE) [µM] | IC50 (human BChE) [nM] | Scavenging (%) [1] [%] | Scavenging (%) ([1]; listed as 4) |
| --- | --- | --- | --- | --- |
| O=C(Nc1ccccc1C(=O)N/N=C/c1ccccc1)c1ccccc1 [Compound 13, (E)-N-(2-(2-Benzylidenehydrazinecarbonyl)phenyl)benzamide] | 0.11 ± 0.03 | 100 ± 60 | 30.21 | – |
| O=C(Nc1ccccc1C(=O)N/N=C/c1ccc(O)cc1O)c1ccccc1 [Compound 10, (E)-N-(2-(2-(2,4-Dihydroxybenzylidene)hydrazinecarbonyl)phenyl)benzamide] | 18.5 ± 0.19 | 2150 ± 260 | 82.55 | – |
| O=C(Nc1ccccc1C(=O)N/N=C/c1ccccc1O)c1ccccc1 [Compound 11, (E)-N-(2-(2-(2-Hydroxybenzylidene)hydrazinecarbonyl)phenyl)benzamide] | 1.14 ± 0.35 | 120 ± 90 | 67.54 | – |
| CC(C)c1ccc(/C=N/NC(=O)c2ccccc2NC(=O)c2ccccc2)cc1 [Compound 09, (E)-N-(2-(2-(4-Isopropylbenzylidene)hydrazinecarbonyl)phenyl)benzamide] | 23.1 ± 0.25 | – | 33.73 | – |
| O=C(Nc1ccccc1C(=O)N/N=C/c1ccc(Br)cc1)c1ccccc1 [Compound 06, (E)-N-(2-(2-(4-Bromobenzylidene)hydrazinecarbonyl)phenyl)benzamide] | 0.09 ± 0.05 | 140 ± 50 | 15.88 | – |
| O=C1O[C@H]([C@@H](O)CO)C(O)=C1O [Ascorbic acid, ascorbic acid, reference compound] | – | – | 96.39 | – |
| O=C(Nc1ccccc1C(=O)N/N=C/c1ccc(Cl)cc1)c1ccccc1 [Compound 05, (E)-N-(2-(2-(4-Chlorobenzylidene)hydrazinecarbonyl)phenyl) benzamide] | 1.03 ± 0.12 | 1240 ± 120 | 35.37 | – |
| COC(=O)c1ccccc1NC(=O)c1ccccc1 [Compound 03, methyl-2-benzamidobenzoate] | 0.25 ± 0.06 | 210 ± 60 | 37.17 | – |
| O=C(Nc1ccccc1C(=O)N/N=C/c1ccc([N+](=O)[O-])cc1)c1ccccc1 [Compound 08, (E)-N-(2-(2-(4-Nitrobenzylidene)hydrazinecarbonyl)phenyl)benzamide] | 14.8 ± 0.29 | 190 ± 120 | 20.20 | – |
| COc1ccc(/C=N/NC(=O)c2ccccc2NC(=O)c2ccccc2)cc1 [Compound 12, (E)-N-(2-(2-(4-Methoxybenzylidene)hydrazinecarbonyl)phenyl)benzamide] | 20.4 ± 0.23 | 18340 ± 140 | 30.09 | – |
| NNC(=O)c1ccccc1NC(=O)c1ccccc1 [Compound 04, N-(2-(hydrazinecarbonyl)phenyl)benzamide] | 27.65 ± 0.14 | 170 ± 120 | 95.06 | 95.07 |
| CN(C)c1ccc(/C=N/NC(=O)c2ccccc2NC(=O)c2ccccc2)cc1 [Compound 07, (E)-N-(2-(2-(4-(Dimethylamino)benzylidene)hydrazinecarbonyl)phenyl)benzamide] | 25.2 ± 0.21 | – | 43.97 | – |
